{
  "source": "patent US20150196025A1",
  "about": "“BIOACTIVE HEME-HALOPEROXIDASE COMPOSITIONS AND METHODS OF THEIR USE” (Exoxemis, Inc., priority 2014, published 2015)",
  "type_in_all_cases": "cell-based, Staphylococcus aureus",
  "key": {"S. aureus [1]": {"tested_on": "S. aureus", "experiment": "Microbicidal plate assay, pEPO with amine additives, aged 0 or 5 minutes with H2O2 (Example 7)", "conditions": "FIG. 7, 10 ug/mL pEPO, additive 3 mM, 2 mM NaBr; for microbicidal activity, Reaction 2 (aged 5 minutes with H2O2): 0.89 mM H2O2; for microbicidal activity, Reaction 1 (aged 0 min): 0.89 mM H2O2, one minute, 10^8 cfu/mL"}, "S. aureus [2]": {"tested_on": "S. aureus", "experiment": "Microbicidal plate assay, hydrogen peroxide/pEPO/ethanolamine versus neat hydrogen peroxide (Example 4)"}, "S. aureus [3]": {"tested_on": "S. aureus", "experiment": "Microbicidal plate assay, formulations aged 1 or 30 minutes before adding bacteria, with or without ethanolamine (Examples 5 and 6)", "conditions": "FIG. 6 compared to FIG. 5", "experimental": "S. aureus (10^9 cfu/mL, final concentration) was added and the reaction was incubated at room temperature for one minute. The reaction was stopped by plating. The plates were incubated overnight at 36° C.\nThe reactions described in Example 4 were repeated with Formulations F for plates 2-5 with the added condition that the formulations were incubated (aged) 1 or 30 minutes prior to adding the S. aureus bacteria. The reaction was incubated at room temperature for one minute after the addition of bacteria. An additional sample was added (100 μg/mL pEPO; 8.9 mM H2O2; 20 mM ethanolamine; and 20 mmM NaBr).\nThe reactions were carried out as described in Example 5."}, "S. aureus [4]": {"tested_on": "S. aureus", "experiment": "Microbicidal plate assay, pEPO formulations aged two minutes to ninety-six hours with H2O2 (Examples 8 and 9)", "conditions": "50 ug/mL pEPO, 20 mM additive; for microbicidal activity, Reaction 2 (aged twenty-four hours): FIG. 9B; for microbicidal activity, Reaction 2 (aged twenty-four hours) / retention of microbicidal activity on ageing / microbicidal activity, Reaction 1 (aged two minutes): 10 mM NaBr, 8.9 mM H2O2; for retention of microbicidal activity on ageing: FIGS. 8A-8C, aged two minutes, twenty-four or ninety-six hours; for kill of the microbes added to aged formulations: aged for up to ninety-six hours before the addition of bacteria; for microbicidal activity, Reaction 1 (aged two minutes): FIG. 9A"}},
  "data": [
    {"compound": "N[C@@H](CO)C(=O)O", "note": "[serine, L-serine, reference compound]", "values": [
      {"measurement": "microbicidal activity, Reaction 2 (aged 5 minutes with H2O2)", "setting": "S. aureus [1]", "result": "only formulations comprising pEPO and ethanolamine or diethanolamine maintained microbicidal activity"},
      {"measurement": "microbicidal activity, Reaction 1 (aged 0 min)", "setting": "S. aureus [1]", "result": "some microbicidal activity"}
    ]},
    {"compound": "OO", "note": "[hydrogen peroxide]", "values": [
      {"measurement": "concentration of H2O2 effective to result in a complete kill (as low as)", "setting": "S. aureus [2]", "result": 0.5, "unit": "mM"},
      {"measurement": "killing the bacteria by neat hydrogen peroxide", "setting": "S. aureus [2]; 89 mM (0.3%), no pEPO, one minute", "result": "ineffective in killing the bacteria"},
      {"measurement": "kill of the bacteria", "setting": "S. aureus [2]; hydrogen peroxide 0.5 mM with the addition of pEPO, Plate 2", "result": 100, "unit": "%"}
    ]},
    {"compound": "OCCNCCO", "note": "[diethanolamine]", "values": [
      {"measurement": "microbicidal activity, Reaction 2 (aged 5 minutes with H2O2)", "setting": "S. aureus [1]", "result": "maintained microbicidal activity"},
      {"measurement": "microbicidal activity, Reaction 1 (aged 0 min)", "setting": "S. aureus [1]", "result": "some microbicidal activity"}
    ]},
    {"compound": "NCCO", "note": "[ethanolamine]", "values": [
      {"measurement": "effect of ethanolamine on microbicidal activity", "setting": "S. aureus [3]", "result": "significantly enhances the microbicidal activity of pEPO/H2O2 compositions"},
      {"measurement": "microbicidal activity, Reaction 2 (aged 5 minutes with H2O2)", "setting": "S. aureus [1]", "result": "maintained microbicidal activity"},
      {"measurement": "microbicidal activity, Reaction 1 (aged 0 min)", "setting": "S. aureus [1]", "result": "some microbicidal activity"},
      {"measurement": "microbicidal activity, Reaction 2 (aged twenty-four hours)", "setting": "S. aureus [4]", "result": "retain microbicidal activity for twenty-four hours"},
      {"measurement": "retention of microbicidal activity on ageing", "setting": "S. aureus [4]", "result": "retain microbicidal activity up to at least ninety-six hours"},
      {"measurement": "kill of the microbes added to aged formulations", "setting": "S. aureus [4]", "result": "complete kill"}
    ]},
    {"compound": "NCCCO", "note": "[propanolamine]", "values": [
      {"measurement": "retention of microbicidal activity on ageing", "setting": "S. aureus [4]", "result": "retain microbicidal activity up to at least ninety-six hours"},
      {"measurement": "kill of the microbes added to aged formulations", "setting": "S. aureus [4]", "result": "complete kill"}
    ]},
    {"compound": "COC(=O)CN", "note": "[glycine methyl ester, Glycine methyl ester, reference compound]", "values": [
      {"measurement": "microbicidal activity, Reaction 1 (aged two minutes)", "setting": "S. aureus [4]", "result": "show initial microbicidal activity"},
      {"measurement": "microbicidal activity, Reaction 2 (aged twenty-four hours)", "setting": "S. aureus [4]", "result": "lose microbicidal activity after twenty-four hours"}
    ]},
    {"compound": "NCC(N)=O", "note": "[glycinamide, Glycinamide, reference compound]", "values": [
      {"measurement": "microbicidal activity, Reaction 1 (aged two minutes)", "setting": "S. aureus [4]", "result": "show initial microbicidal activity"},
      {"measurement": "microbicidal activity, Reaction 2 (aged twenty-four hours)", "setting": "S. aureus [4]", "result": "lose microbicidal activity after twenty-four hours"}
    ]}
  ]
}
